Measurements from paper PMC10989506, “Cell penetration of oxadiazole-containing macrocycles” (RSC Chemical Biology, 2024).
Values joined by “and” are separate entries in the source; they are usually repeats but may differ in a detail not shown here. Equal values may be shown once. *1 amine or outer side, *2 acyl side, *3 side chain or, on linkers, in order; H or OH if unused. Where a SMILES comes first, the peptide text is derived from it. Side-chain parts run from the residue outwards. The star is where a group is joined. NH(CH2CH2O)2(CH2)6Cl = ClCCCCCCOCCOCCN*; Suc = O=C(CCC(=O)[*:2])[*:1]

How the values were obtained:
[1] = PAMPA; for −log Pe: pH 7.4
Procedure: (§1) 5 Parallel Artificial Membrane Permeability Assay (PAMPA)
(§2) PAMPA analysis was conducted following a procedure reported by Lokey and coworkers. 9 Each measurement was conducted at room temperature in an insulated polystyrene box to maintain a constant internal temperature. Measurements were taken in triplicate, and the reported permeability values are the average value over the three runs. Carbamaz epine was included in the stock solution of each cyclic peptide to verify the integrity of the membrane as an internal standard.
(§3) Preparation of stock solution for donor well: Stock solutions were prepared by dissolving the […]
cyclic peptide (0.5 mM) and carbamazepine (0.5 mM) (as an internal standard) in DMSO at a gross […]
concentration of 1 mM. 10 μL of this stock solution was added to 990 μL PBS buffer (pH 7.4) to […]
give a 1 mL solution (10 μM, 1% DMSO v/v) for addition to the donor plate wells.
Preparation of acceptor plate: A stock solution of 5% DMSO in PBS buffer was prepared, and […]
300μL of this solution was added to each of the acceptor wells (96-well Teflon acceptor plate […]
Preparation of donor plate: 100 mg of lethicin (90%, soybean) was suspended in n -dodecane (10 […]
mL) and sonicated to give a homogenous, clear solution. 5 μL of this solution was carefully applied […]
to the membrane in the 96-well donor plate (with 0.45 μm hydrophobic Immobilon-P membrane […]
supports (Millipore MAIPNTR10)) (with care, without touching the membrane). Shortly after (~5 - […]
15 min), 150 μL of the 10 μM stock solution of cyclic peptide and carbamazepine (prepared as […]
above) were added to the donor well. The donor plate was placed on top of the acceptor wells and […]

[2] = Relative hydrophobicity by reverse-phase HPLC retention time; type: physicochemical; settings: C18 LC-MS, gradient 95%/5% MeCN to 100% MeCN over 15 min; measure of relative lipophilicity
Excerpt: To provide additional evidence for this hypothesis, we used the retention time on reverse phase HPLC as a measure of the overall relative lipophilicity. […] Overall, the more lipophilic cyclic peptides had more efficient cell penetration than the more hydrophilic ones.

[3] = system: HeLa cells stably expressing the HaloTag-GFP-Mito construct; test: Chloroalkane Penetration Assay (CAPA); type: cell-based
Excerpt: Cell-based assays such as the Caco-2 assay and Madin–Darby canine kidney cell line (MDCK) permeability assay have been employed to offer a fuller assessment of transport in vitro.[22,23] The chloroalkane penetration assay (CAPA) is a relatively recent methodology for measuring cell penetration in live cells (Fig. 1d).[24] This assay uses cells that express a modified haloalkane dehalogenase known as HaloTag that reacts rapidly, selectively, and irreversibly with small chloroalkane ligands.[25,26] CAPA measures cytosolic penetration by pulsing cells with a chloroalkane-tagged compound (ct-compound), then chasing with a chloroaklane-tagged dye (ct-dye). If the ct-compound penetrates the cell and escapes from endosomes, it reacts with HaloTag and blocks the reaction with the ct-dye in the subsequent chase step. Thus, in CAPA, cell penetration of the ct-molecule is inversely proportional to the signal from the ct-dye retained in the cells. The dose dependence of this signal can be fit to a sigmoidal curve, whose midpoint value (called the CP50) can be compared among ct-compounds as a quantitative comparison of cell penetration.[27,28] CAPA is a cost-effective and high-throughput method for measuring the cell penetration of cyclic peptides and other molecules, and it establishes penetration to the cytosol without interference from material trapped in endosomes. In this work, we use CAPA to investigate the cell penetration of Odz macrocycles.
3 Chloroalkane Penetration Assay (CAPA)
Media was aspirated and cells were
washed with serum-free media.
Lysate stability assays were performed essentially as described. 8 For lysate stability assays, HeLa

in vitro = test: in vitro
Procedure: (1 picture or pasted object on this page, not shown here) […]
were taken at each time point and quenched in 160 μL of ice-cold methanol. Samples were spun down for 10 min at 21,000 g prior to analysis by reverse phase analytical HPLC on a C18 column.
Chromatogram peaks were integrated to measure amount of peptide remaining at each time point.
Peak volumes for each timepoint were normalized to the zero-hour timepoint to determine percentage of peptide remaining. Data presented are the average of three biological replicates performed with different lysates on different days.
as §1, §2, §3

−log Pe [1]	Structure (SMILES)	other results
7.92 ± 0.07	CC[C@H]1C2=NN=C(O2)[C@H](Cc2ccccc2)NC(=O)CNC(=O)[C@H](CCCCNC(=O)CCC(=O)NCCOCCOCCCCCCCl)NC(=O)CNC(=O)[C@@H]2CCCN21 [Compound 2]	
7.84 ± 0.04	CC[C@H]1C2=NN=C(O2)[C@H](Cc2ccccc2)NC(=O)CNC(=O)[C@H](CC(C)C)NC(=O)[C@H](CCCCNC(=O)CCC(=O)NCCOCCOCCCCCCCl)NC(=O)[C@@H]2CCCN21 [Compound 3]	
7.85 ± 0.052	CC[C@@H]1N[C@@H](CCCCNC(=O)CCC(=O)NCCOCCOCCCCCCCl)C(=O)NCC(=O)N[C@@H](CC(C)C)C(=O)NCC(=O)N[C@@H](Cc2ccccc2)C2=NN=C1O2 [Compound 4]	
>8	CC[C@H]1C2=NN=C(O2)[C@H](CCCCNC(=O)CCC(=O)NCCOCCOCCCCCCCl)NC(=O)CNC(=O)[C@H](CC(C)C)NC(=O)CNC(=O)[C@@H]2CCCN21 [Compound 5]	
>8	CC[C@H]1C2=NN=C(O2)[C@H](Cc2ccccc2)NC(=O)[C@H](CCCCNC(=O)CCC(=O)NCCOCCOCCCCCCCl)NC(=O)[C@H](CC(C)C)NC(=O)[C@H](CC(=O)O)NC(=O)[C@@H]2CCCN21 [Compound 6]	
>8	CC[C@H]1C2=NN=C(O2)[C@H](Cc2ccccc2)NC(=O)[C@H](CCCCNC(=O)CCC(=O)NCCOCCOCCCCCCCl)NC(=O)[C@H](CC(=O)O)NC(=O)[C@H](CC(=O)O)NC(=O)[C@@H]2CCCN21 [Compound 7]	
	NC(=O)N1c2ccccc2C=Cc2ccccc21 [carbamazepine, reference compound]	-Log Papp [1]: 5.7–5.8

Structure (SMILES)	−log Pe [1]	other results
CC(C)C[C@@H]1NC(=O)CNC(=O)[C@@H]2CCCN2C(=O)[C@H](C)NC(=O)[C@H](Cc2ccccc2)NC(=O)[C@H](CCCCNC(=O)CCC(=O)NCCOCCOCCCCCCCl)NC1=O [Compound 8] (cyclo(PGLK([Suc-NH(CH2CH2O)2(CH2)6Cl])FA))	>8	T ret [2]: 7.95 min; cell penetration, fold worse than compound 1 ([3]; CAPA CP50 compared with compound 1): more than 20 fold; CP50 after 30 min incubation ([3]; ct-peptides incubated with cells in Opti-MEM for 30 min prior to chasing with ct-dye): 1.0 µM and 1.0 ± 0.03 µM; CP50 after 4 h incubation ([3]; ct-peptides incubated with cells in Opti-MEM for 4 h prior to chasing with ct-dye): 0.22 µM and 0.22 ± 0.02 µM; intact compound remaining in HeLa lysate (in vitro; 4 h): almost no intact macrocycle; remaining at 1 h, 150 μM (in vitro; human, cells or culture medium, pH 8): ~50%
